Where two headings read alike, the source gives them in different places. Where a SMILES comes first, the peptide text is derived from it. Bridges are numbered along the chain shown (N, C = ends). [ ]: non-standard residue; d: D form. The star is where a group is joined. hPhe(3-Cl-4-CF3) = N[C@@H](CCc1ccc(C(F)(F)F)c(Cl)c1)C(=O)O; NPrPhe(4-CF3) = CCCN[C@@H](Cc1ccc(C(F)(F)F)cc1)C(=O)O; NMeGly(cPent) = CN[C@H](C(=O)O)C1CCCC1; NMeD = CN[C@@H](CC(=O)O)C(=O)O; NMeL = CN[C@@H](CC(C)C)C(=O)O; Morpholide = C1CN(*)CCO1; Ac5c = NC1(C(=O)O)CCCC1; Abu = CC[C@H](N)C(=O)O; Sar = CNCC(=O)O
Experiments:
[1] = biological target: GDP-bound NRAS wild-type protein (Homo sapiens, UniProt P01111); assay: Binding to NRAS by surface plasmon resonance (SPR), Single Cycle Kinetics; conditions: for NRAS/KRAS (ratio of KD value with respect to GDP-bound NRAS wild-type protein to KD value with respect to KRAS): SPR KD ratio NRAS/KRAS, class symbols
Chain of GDP-bound NRAS wild-type protein (P01111 whole entry): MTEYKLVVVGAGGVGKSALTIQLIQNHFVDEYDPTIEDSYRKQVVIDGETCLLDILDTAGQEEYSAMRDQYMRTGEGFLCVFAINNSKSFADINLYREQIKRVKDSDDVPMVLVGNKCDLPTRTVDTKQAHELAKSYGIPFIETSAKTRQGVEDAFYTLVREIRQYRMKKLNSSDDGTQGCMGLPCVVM

[2] = biological target: GDP-bound KRAS wild-type protein (Homo sapiens, UniProt P01116); assay: Binding to KRAS by surface plasmon resonance (SPR), Single Cycle Kinetics; conditions: GDP-bound KRAS wild-type protein, read-out: KRAS KD
Chain of GDP-bound KRAS wild-type protein (P01116 whole entry): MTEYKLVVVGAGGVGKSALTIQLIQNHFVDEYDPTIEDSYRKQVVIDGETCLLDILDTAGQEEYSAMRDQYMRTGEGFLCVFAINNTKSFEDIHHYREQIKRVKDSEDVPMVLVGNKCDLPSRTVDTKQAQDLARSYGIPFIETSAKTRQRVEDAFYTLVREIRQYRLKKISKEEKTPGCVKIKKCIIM

[3] = biological target: GDP-bound HRAS wild-type protein (Homo sapiens, UniProt P01112); assay: Binding to HRAS by surface plasmon resonance (SPR), Single Cycle Kinetics; conditions: for HRAS/KRAS (ratio of KD value with respect to GDP-bound HRAS wild-type protein to KD value with respect to KRAS): SPR KD ratio HRAS/KRAS, class symbols
Chain of GDP-bound HRAS wild-type protein (P01112 whole entry): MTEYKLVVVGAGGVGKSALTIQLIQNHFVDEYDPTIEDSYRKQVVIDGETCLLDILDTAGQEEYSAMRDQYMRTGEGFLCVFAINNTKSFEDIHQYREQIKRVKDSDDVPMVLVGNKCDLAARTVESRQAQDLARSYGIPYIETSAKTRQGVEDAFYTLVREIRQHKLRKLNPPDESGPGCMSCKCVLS

[4] = SPR, GDP-bound NRAS wild-type protein vs GDP-bound KRAS wild-type protein
[5] = SPR, GDP-bound HRAS wild-type protein vs GDP-bound KRAS wild-type protein
[6] = SPR Single Cycle Kinetics, 1:1 binding model

| SMILES | NRAS/KRAS (ratio of KD value for NRAS to KD value for KRAS) [1, 4] | Kd ([2]; SPR, Single Cycle Kinetics) | HRAS/KRAS (ratio of KD value for HRAS to KD value for KRAS) [3, 5] | Kd [2, 6] | NRAS/KRAS (ratio of KD value with respect to GDP-bound NRAS wild-type protein to KD value with respect to KRAS) [1] | HRAS/KRAS (ratio of KD value with respect to GDP-bound HRAS wild-type protein to KD value with respect to KRAS) [3] | NRAS/KRAS (ratio of KD value with respect to NRAS to KD value with respect to KRAS) [1, 4] | HRAS/KRAS (ratio of KD value with respect to HRAS to KD value with respect to KRAS) [3, 5] |
| --- | --- | --- | --- | --- | --- | --- | --- | --- |
| CCO[C@@H]1C[C@H]2C(=O)NC3(CCC3)C(=O)N(C)[C@@H](C3CCCC3)C(=O)N(CCC3CCCC3)[C@H](C(=O)N3CCOCC3)CC(=O)N(C)[C@@H](CC)C(=O)N[C@@H]([C@@H](C)CC)C(=O)N(C)CC(=O)N(C)[C@H]3C/C=C\CCN(C3=O)[C@@H](Cc3ccc(C(F)(F)F)cc3)C(=O)N(C)CC(=O)N[C@@H](CCc3cc(F)c(C(F)(F)F)c(F)c3)C(=O)N2C1 [PP0981] | AA (a compound having 20 or more is denoted as AA) | 11 nM | A (a compound having 10 or more and less than 20 is denoted as A) |  |  |  |  |  |
| CCCN1C(=O)CN(C)C(=O)CN(C)C(=O)[C@H](CC)NC(=O)[C@H](CC(C)C)N(C)C(=O)C[C@@H](C(=O)N2CCOCC2)N(C)C(=O)[C@H](C2CCCC2)N(C)C(=O)C2(CCCC2)NC(=O)[C@@H]2CCCN2C(=O)[C@H](CCc2ccc(C(F)(F)F)c(Cl)c2)NC(=O)CN(C)C(=O)[C@@H]1Cc1ccc(C(F)(F)F)cc1 [PP0248] ([NMeL][Abu][Sar][Sar][NPrPhe(4-CF3)][Sar][hPhe(3-Cl-4-CF3)]P[Ac5c][NMeGly(cPent)][NMeD]-Morpholide; lactam N-11) | B (a compound having 3 or more and less than 10 is denoted as B) |  | B (a compound having 3 or more and less than 10 is denoted as B) | 1.1 nM |  |  |  |  |
| CCO[C@@H]1C[C@H]2C(=O)NC3(CCC3)C(=O)N(C)[C@@H](C(CC)CC)C(=O)N(C)[C@H](C(=O)N3CCCC3)CC(=O)N(C)[C@H]3CCCCC/C=C/c4ccc(cc4)C[C@@H](C(=O)N(C)CC(=O)N[C@@H](CCc4ccc(Cl)c(Cl)c4)C(=O)N2C1)N1CC/C=C\C[C@@H](C1=O)N(C)C(=O)CN(C)C(=O)[C@H]([C@@H](C)CC)NC3=O [PP3052] | AA (a compound having 20 or more is denoted as AA) | 0.26 nM | A (a compound having 10 or more and less than 20 is denoted as A) |  |  |  |  |  |
| CCC[C@H]1C(=O)N[C@@H]([C@@H](C)CC)C(=O)N(C)CC(=O)N(C)[C@H]2C/C=C\CCN(C2=O)[C@@H](Cc2ccc(C)cc2)C(=O)N(C)CC(=O)N[C@@H](CCc2ccc3c(C)c(C)n(C)c3c2)C(=O)N2C[C@H](OCC)C[C@H]2C(=O)NC2(CC(C)(C)C2)C(=O)N(C)[C@@H](C2CCCC2)C(=O)N(C)[C@H](C(=O)N(C)C)CC(=O)N1C [PP2895] |  |  |  | 3.2 nM | A (a compound having 10 or more and less than 20 is denoted as A) | A (a compound having 10 or more and less than 20 is denoted as A) |  |  |
| CC[C@H](C)[C@@H]1NC(=O)[C@H](CC(C)C)N(C)C(=O)C[C@@H](C(=O)N2CCOCC2)N(C)C(=O)[C@H](C2CCCC2)N(C)C(=O)C2(CCCC2)NC(=O)[C@@H]2[C@@H](O)CCN2C(=O)[C@H](CCc2cc(F)c(C(F)(F)F)c(F)c2)NC(=O)CN(C)C(=O)[C@H](Cc2ccc(C(F)(F)F)cc2)N2CCCCC[C@@H](C2=O)N(C)C(=O)CN(C)C1=O [PP0662] |  |  |  | 3.1 nM |  |  | B (a compound having 3 or more and less than 10 is denoted as B) | B (a compound having 3 or more and less than 10 is denoted as B) |
| CCC[C@H]1C(=O)N[C@@H]([C@@H](C)CC)C(=O)N(C)CC(=O)N(C)[C@H]2C/C=C\CCN(C2=O)[C@@H](Cc2ccc(C(F)(F)F)cc2)C(=O)N(C)CC(=O)N[C@@H](CCc2cc(Cl)c3sccc3c2)C(=O)N2C[C@H](OCC)C[C@H]2C(=O)NC2(CC(C)(C)C2)C(=O)N(C)[C@@H](C(CC)CC)C(=O)N(C)[C@H](C(=O)N(C)C)CC(=O)N1C [PP2888] |  |  |  | 0.39 nM | AA (a compound having 20 or more is denoted as AA) | A (a compound having 10 or more and less than 20 is denoted as A) |  |  |

From US20240158446A1, “CYCLIC COMPOUND HAVING SELECTIVE INHIBITORY ACTION ON KRAS OVER HRAS AND NRAS” (CHUGAI SEIYAKU KABUSHIKI KAISHA, priority 2021, published 2024)
